From ChEMBL document CHEMBL1201862, “PubChem BioAssay data set” (2004)
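These data come from cells grown in 96-well plates and exposed to compound for 48 hours at five concentrations. Abbreviation: GI50, concentration required for 50% inhibition of growth.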 Calls of active or inactive are those of the source. No stated cut-off is given here; in the data, active = GI50 up to about 1.1 µM and inactive = higher.

Tests used:
Experiment in all cases: DTP human tumour cell line panel, 48 h
HOP-62 = tested on: HOP-62
U-251 = tested on: U-251
M14 = tested on: M14
SN12C = tested on: SN12C
SNB-75 = tested on: SNB-75
SK-OV-3 = tested on: SK-OV-3
OVCAR-3 = tested on: OVCAR-3
RXF 393 = tested on: RXF 393
KM12 = tested on: KM12
SK-MEL-28 = tested on: SK-MEL-28
TK-10 = tested on: TK-10
SW-620 = tested on: SW-620
NCI-H23 = tested on: NCI-H23
HT-29 = tested on: HT-29
SF-268 = tested on: SF-268
RPMI-8226 = tested on: RPMI-8226
SR = tested on: SR

Measured: GI50

CC(N)Cc1ccc(C(=O)Cl)cc1 (stereo not given)
inactive: HOP-62 > 100 µM | U-251 > 100 µM | M14 > 100 µM | SN12C > 100 µM | SNB-75 > 100 µM | SK-OV-3 > 100 µM | OVCAR-3 > 100 µM | RXF 393 > 100 µM | KM12 > 100 µM | SK-MEL-28 > 100 µM | TK-10 > 100 µM | SW-620 > 100 µM | NCI-H23 > 100 µM | HT-29 > 100 µM | SF-268 > 100 µM | RPMI-8226 > 100 µM

CN(C)C(=S)/N=c1\ss/c(=N\S(=O)(=O)c2ccccc2)n1C
inactive: HOP-62 > 100 µM | SR > 100 µM | U-251 > 100 µM | M14 > 100 µM | SN12C > 100 µM | SNB-75 39.2 µM | SK-OV-3 > 100 µM | RXF 393 > 100 µM | KM12 > 100 µM | SK-MEL-28 > 100 µM | TK-10 > 100 µM | SW-620 > 100 µM | NCI-H23 > 100 µM | HT-29 > 100 µM | SF-268 > 100 µM | RPMI-8226 > 100 µM

Nc1ccn(CCOC(=O)c2ccccc2)c(=O)n1
inactive: HOP-62 > 100 µM | U-251 > 100 µM | M14 > 100 µM | SN12C > 100 µM | SNB-75 > 100 µM | SK-OV-3 > 100 µM | OVCAR-3 > 100 µM | RXF 393 > 100 µM | KM12 > 100 µM | SK-MEL-28 > 100 µM | TK-10 > 100 µM | SW-620 > 100 µM | HT-29 > 100 µM | SF-268 > 100 µM | RPMI-8226 > 100 µM

CCOC(=O)N1C(c2ccccc2)C=CC(c2ccccc2)N1C(=O)OCC (stereo not given)
inactive: HOP-62 > 100 µM | SR > 100 µM | U-251 > 100 µM | SN12C > 100 µM | SNB-75 42.9 µM | OVCAR-3 > 100 µM | RXF 393 > 100 µM | KM12 > 100 µM | SK-MEL-28 > 100 µM | TK-10 > 100 µM | SW-620 > 100 µM | NCI-H23 > 100 µM | HT-29 > 100 µM | SF-268 > 100 µM | RPMI-8226 > 100 µM

OCCc1cnco1
inactive: HOP-62 > 100 µM | U-251 > 100 µM | M14 > 100 µM | SN12C > 100 µM | SNB-75 > 100 µM | SK-OV-3 > 100 µM | OVCAR-3 > 100 µM | RXF 393 > 100 µM | KM12 > 100 µM | SK-MEL-28 > 100 µM | TK-10 > 100 µM | SW-620 > 100 µM | NCI-H23 > 100 µM | HT-29 > 100 µM | SF-268 > 100 µM | RPMI-8226 > 100 µM

O=C(O)CNc1c2ccccc2[n+]([O-])c2ccccc12
inactive: HOP-62 > 100 µM | U-251 > 100 µM | M14 > 100 µM | SN12C > 100 µM | SNB-75 76.2 µM | SK-OV-3 > 100 µM | OVCAR-3 > 100 µM | KM12 > 100 µM | SK-MEL-28 42.2 µM | TK-10 > 100 µM | SW-620 > 100 µM | NCI-H23 60.7 µM | HT-29 > 100 µM | SF-268 > 100 µM | RPMI-8226 31.8 µM

CN1C(=O)C2C3C=C4c5ccccc5N(c5ccccc5)C4(C2C1=O)[C@H]1C(=O)N(C)C(=O)[C@@H]31 (stereo not given in full)
inactive: HOP-62 > 100 µM | SR > 100 µM | U-251 > 100 µM | M14 > 100 µM | SN12C > 100 µM | SNB-75 > 100 µM | SK-OV-3 > 100 µM | OVCAR-3 > 100 µM | KM12 > 100 µM | SK-MEL-28 > 100 µM | TK-10 > 100 µM | SW-620 > 100 µM | NCI-H23 > 100 µM | HT-29 > 100 µM | SF-268 > 100 µM | RPMI-8226 > 100 µM

[N-]=[N+]=NC(CBr)c1cn([C@H]2C[C@H](O)[C@@H](CO)O2)c(=O)[nH]c1=O (stereo not given in full)
inactive: HOP-62 > 100 µM | SR > 100 µM | U-251 > 100 µM | M14 > 100 µM | SN12C > 100 µM | SNB-75 > 100 µM | SK-OV-3 > 100 µM | OVCAR-3 > 100 µM | RXF 393 > 100 µM | KM12 > 100 µM | SK-MEL-28 > 100 µM | TK-10 > 100 µM | SW-620 > 100 µM | NCI-H23 > 100 µM | HT-29 > 100 µM | RPMI-8226 > 100 µM
